Reference: patent US20070092551A1, “Therapeutic agent” (TAKARA BIO INC., priority 2003, published 2007)
Where two headings read alike, the source gives them in different places.

Test system: mature adipocytes (3T3-L1 cells)
Experiment: Enhancing action on glucose uptake (2-deoxyglucose) into mature adipocytes
Format: cell-based
Conditions: Mus musculus
Method: The induction of differentation into nature adipocytes was carried out by partially modifying the above-mentioned method of Rubin C. S. et al. 3T3-L1 cells (ATCC CCL-92.1) were suspended in a 10% fetal bovine serum (manufactured by Bio Whittaker)-containing Dulbecco's modified Eagle's medium (manufactured by Sigma, D6046) containing 200 μM ascorbic acid so as to have a density of 4×10^3 cells/mL, and the suspension was put in each well of a collagen type I-coated 12-well plate (Iwaki Glass Co., Ltd., code 4815-010) in an amount of 2 mL per well. The cells were cultured at 37° C. for 7 days in the presence of 5% carbon dioxide gas. On the seventh day, the medium was exchanged with 2 mL of a 10% fetal bovine serum (manufactured by Bio Whittaker)-containing Dulbecco's modified Eagle's medium containing 200 μM ascorbic acid, 0.25 μM dexamethasone, 10 μg/mL insulin (manufactured by TAKARA BIO INC.) and 0.5 mM 3-isobutyl-1-methylxanthine (manufactured by nacalai tesque, 19624-86). After 45 hours, the medium was exchanged with 2 mL of a 10% fetal bovine serum-containing Dulbecco's modified Eagle's medium containing 200 μM ascorbic acid and 5 μg/mL insulin. The medium was exchanged on after 2 days and 5 days, and the cells were cultured for 7 days, to give mature adipocytes.
As the evaluation of the enhancing action on glucose uptake, and also as the evaluation of the insulin-mimetic action, the amount of 2-deoxyglucose uptake into mature adipocytes during the stimulation of the test compound in the adipocytes was determined. As a test compound, a compound prepared in the Examples mentioned above or a commercially available compound was used.
After the termination of the culture, the medium was removed, and the cells were washed twice with a 0.1% (w/v) bovine serum albumin (manufactured by Sigma, A8022)-containing Dulbecco's modified Eagle's medium. Thereafter, 1 mL of the same medium containing a test compound in a concentration shown in each of Tables 20 to 23 was put to each well. The cells were cultured overnight at 37° C. in the presence of 5% carbon dioxide gas. Here, a group without containing the test compound was set as a negative control. After the overnight culture, the cells were washed twice with a HEPES buffer (140 mM NaCl, 5 mM KCl, 2.5 mM MgSO4, 1 mM CaCl2, 20 mM HEPES-Na (pH 7.4)). The amount 0.9 mL of the buffer containing a test compound in the same concentration was added to each well. The cells were cultured at 37° C. for 75 minutes. During the culture, as a positive control, there was set a group with addition of insulin to the well without addition of a test compound at a point 45 minutes passed so as to have a final concentration of 1 μg/mL. Thereafter, 100 μL of a HEPES buffer containing 0.5 μCi/mL 2-deoxy-[1,2-^3H(N)]-glucose (manufactured by PerkinElmer Life Sciences Inc., NET549A) and 1 mM 2-deoxyglucose (manufactured by nacalai tesque, 10722-11) was added thereto. The cells were cultured at 37° C. for additional 10 minutes. After the termination of the culture, the supernatant was removed, and the cells were washed three times with a phosphate buffer cooled to 4° C. Thereafter, 0.5 mL of a 1% Nonidet P-40-containing phosphate buffer was added to lyse the cells, whereby 2-deoxy-[1,2-^3H(N)]-glucose subjected to uptake into the cells was eluted. The radioactivity was determined with a liquid scintillation counter LS6500 (manufactured by Beckmann) using 25 μL of the supernatant with Ultima Gold (manufactured by PerkinElmer Life Sciences Inc., 6013329) as a scintillation cocktail. The enhancing action on glucose uptake was calculated by the following calculation formula, and shown by four ranks of +++, ++, + and +/−. • S: Amount of 2-deoxyglucose uptake in the presence of a test compound; • N: Amount of 2-deoxyglucose uptake in the negative control; and • P: Amount of 2-deoxyglucose uptake in the positive control; X=(S−N)/(P−N) (Judgment of Enhancing Action for 2-Deoxyglucose Uptake)

[1] = 3T3-L1, 3 μM, X=(S−N)/(P−N) of 2-deoxyglucose uptake, P=insulin 1 μg/mL, read-out: Enhancing Action on Glucose Uptake
[2] = 3T3-L1, 10 μM, X=(S−N)/(P−N) of 2-deoxyglucose uptake, P=insulin 1 μg/mL, read-out: Enhancing Action on Glucose Uptake
[3] = 3T3-L1, 30 μM, X=(S−N)/(P−N) of 2-deoxyglucose uptake, P=insulin 1 μg/mL, read-out: Enhancing Action on Glucose Uptake
[4] = 3T3-L1, read-out: Enhancing Action on Glucose Uptake

SMILES | activation at 10 µM [2] [%] | activation at 30 µM [3] [%] | other results
COc1ccc(C(=O)/C=C/C=C/c2ccccc2)c(O)c1CC=C(C)C [Compound (C-CIN), 1-(2-hydroxy-4-methoxy-3-prenylphenyl)-5-phenyl-2,4-pentadien-1-one] | 15 to 30 | > 100 | activation at 3 µM [1]: 15 to 30%
CCCCC1OC(=O)C2=CCCCC21 (stereo not shown) [Sedanolide] | 15 to 30 | 60 to 100 | 
O=C(/C=C/c1ccc(O)c(O)c1)c1ccccc1O [Compound (C005), 3,4,2′-trihydroxychalcone] | 30 to 60 | 30 to 60 | 
CC(C)=CCCC1(C)C=Cc2c(ccc(C(=O)/C=C/c3ccc(O)cc3)c2O)O1 (stereo not shown) [Lespeol] | 60 to 100 | 60 to 100 | 
C/C=C(/C)C(=O)OC1c2c(ccc3ccc(=O)oc23)OC(C)(C)C1OC(C)=O (stereo not shown) [Coumarin Compound A, 3′-acetoxy-4′-angeloyloxy-3′,4′-dihydroseselin] | > 100 | > 100 | 
CCOc1ccc(C(=O)/C=C/c2ccc(O)cc2)c(O)c1C/C=C(\C)CCC=C(C)C [Compound (C050), 4,2′-dihydroxy-3′-geranyl-4′-ethoxychalcone] | > 100 |  | activation at 3 µM [1]: 15 to 30%
COc1ccc2c(c1CC=C(C)C)OC(c1ccco1)C(=Cc1ccco1)C2=O (stereo not shown) [Compound (FUR-2), 2-(2-furyl)-3-(2-furylmethylene)-2,3-dihydro-7-methoxy-8-prenyl-4H-1-benzopyran-4-one] | 30 to 60 | 30 to 60 | activation at 3 µM [1]: 15 to 30%
COc1ccc(C(=O)/C=C/c2ccc(O)cc2)c(O)c1CC1C2(C)CCC(O2)C1(C)C (stereo not shown) [TB7, 1-[3-(2,5-epoxy-2,6,6-trimethyl-cyclohexylmethyl)-2-hydroxy-4-methoxyphenyl]-3-(4-hydroxyphenyl)-2-propen-1-one] | > 100 | > 100 | 
COc1ccc(C(=O)/C=C/c2ccc(O)cc2)c(O)c1C/C=C(\C)CC/C=C(\C)CCC=C(C)C [Compound (C053), 4,2′-dihydroxy-3′-farnesyl-4′-methoxychalcone] | > 100 | > 100 | activation at 3 µM [1]: 30 to 60%
CCC/C=C1\OC(=O)c2ccccc21 [n-Butylidenephthalide] |  |  | activation at 3 µM [4]: 30 to 60%; activation at 10 µM [4]: 60 to 100%; activation at 30 µM [4]: > 100%
COc1ccc(C(=O)/C=C/c2ccc(OC3CCCCO3)cc2)c(O)c1CC=C(C)C (stereo not shown) [Compound (C030), 4-tetrahydropyranyloxy-2′-hydroxy-3′-prenyl-4′-methoxychalcone] | 30 to 60 | > 100 | 
COc1ccc(C(=O)/C=C/c2ccc(O)c(O)c2)c(O)c1CC=C(C)C [Compound (C031), 3,4,2′-trihydroxy-3′-prenyl-4′-methoxychalcone] | 15 to 30 | > 100 | 
CC(C)=CCC/C(C)=C/CC/C(C)=C/Cc1c(O)ccc(C(=O)/C=C/c2ccc(O)cc2)c1O [Compound (C058), 4,2′,4′-trihydroxy-3′-farnesylchalcone] |  | > 100 | 
COc1ccc(C(=O)/C=C/c2ccc(O)cc2)c(O)c1CCC(C)C [Compound (C043), 4,2′-dihydroxy-3′-(3-methylbutyl)-4′-methoxychalcone] | > 100 |  | activation at 3 µM [1]: 15 to 30%
CC(=O)c1cc(CC=C(C)C)c(O)cc1O [Compound (C025), 2′,4′-dihydroxy-5′-prenylacetophenone] | 15 to 30 | 30 to 60 | 
C/C=C(/C)C(=O)OC1Cc2c(ccc3ccc(=O)oc23)OC1(C)C (stereo not shown) [Coumarin Compound B, 3′-angeloyloxy-3′,4′-dihydroseselin] | > 100 | > 100 | 
CC(=O)c1ccc(OC2CCCCO2)c(C/C=C(\C)CCC=C(C)C)c1O (stereo not shown) [Compound (C045), 2′-hydroxy-3′-geranyl-4′-tetrahydropyranyloxyacetophenone] | 15 to 30 | 30 to 60 | 
C/C=C(/C)C(=O)OC1C(O)c2c(ccc3ccc(=O)oc23)OC1(C)C (stereo not shown) [Coumarin Compound C, 3′-angeloyloxy-4′-hydroxy-3′,4′-dihydroseselin] |  | 30 to 60 | 
COc1ccc(C=O)c(O)c1 [2-Hydroxy-4-methoxybenzaldehyde] | 15 to 30 | 30 to 60 | 
O=C(/C=C/c1ccc(O)c(O)c1)c1cc(O)ccc1O [Compound (C006), 3,4,2′,5′-tetrahydroxychalcone] | 30 to 60 |  | 
O=C(/C=C/c1ccc(O)c(O)c1)c1ccc(Cl)cc1Cl [Compound (C011), 3,4-dihydroxy-2′,4′-dichlorochalcone] | 60 to 100 | > 100 | activation at 3 µM [1]: 15 to 30%
O=C(/C=C/c1ccccc1)c1ccccc1 [Chalcone] | 30 to 60 | 30 to 60 | 
